Experiments:
GIRK1/4(T-V) = biological target: T1, GIRK1/4(T-V) (Homo sapiens, UniProt P48544+P48549, T94V); assay: TEVC in Xenopus oocytes, single mutant GIRK1/4(T-V); format: cell-based; conditions: GIRK1/4(T-V) single mutant
T1 construct: expressed in transfected cells; host or cells: Xenopus laevis oocytes (cRNA injection)
T1 sequence (P48549 1-501): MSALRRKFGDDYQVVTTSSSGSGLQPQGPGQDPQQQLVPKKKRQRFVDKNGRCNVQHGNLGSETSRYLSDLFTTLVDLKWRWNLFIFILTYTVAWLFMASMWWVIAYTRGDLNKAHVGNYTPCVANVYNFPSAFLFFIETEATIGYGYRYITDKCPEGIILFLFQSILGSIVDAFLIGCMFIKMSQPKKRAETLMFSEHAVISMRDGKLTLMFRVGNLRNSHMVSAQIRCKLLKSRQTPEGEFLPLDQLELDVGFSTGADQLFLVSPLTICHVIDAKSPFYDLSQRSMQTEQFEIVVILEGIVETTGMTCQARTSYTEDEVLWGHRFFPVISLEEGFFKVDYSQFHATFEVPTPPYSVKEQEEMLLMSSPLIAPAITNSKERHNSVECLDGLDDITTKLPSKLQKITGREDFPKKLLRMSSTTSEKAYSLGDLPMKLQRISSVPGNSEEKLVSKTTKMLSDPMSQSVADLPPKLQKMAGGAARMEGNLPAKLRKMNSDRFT
T1 sequence (P48544 1-419 T94V): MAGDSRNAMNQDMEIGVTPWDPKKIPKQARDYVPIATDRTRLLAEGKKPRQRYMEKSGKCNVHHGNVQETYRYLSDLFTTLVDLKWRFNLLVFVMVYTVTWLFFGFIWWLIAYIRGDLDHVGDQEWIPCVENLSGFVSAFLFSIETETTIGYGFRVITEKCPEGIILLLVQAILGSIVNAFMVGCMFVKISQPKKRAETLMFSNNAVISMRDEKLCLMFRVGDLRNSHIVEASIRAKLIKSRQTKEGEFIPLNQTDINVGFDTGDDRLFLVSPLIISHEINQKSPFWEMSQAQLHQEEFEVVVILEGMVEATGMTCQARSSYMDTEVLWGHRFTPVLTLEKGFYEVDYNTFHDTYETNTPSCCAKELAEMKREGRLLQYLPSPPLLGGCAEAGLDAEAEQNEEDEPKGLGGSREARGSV
Excerpt: Molecular biology: For Xenopus oocyte expression, human GIRK1 and human GIRK4 cDNAs were subcloned into pGEMHE. For mammalian expression, human GIRK1 and human GIRK4 cDNAs were subcloned into pcDNA3 and pcDNA3.1/V5-His B, respectively (Invitrogen). Mouse GIRK2 cDNA was subcloned in the dual-function vector, pXoom. Point mutations were introduced using a standard Pfu-based mutagenesis technique according to the QuikChange protocol (Agilent). Mutations were verified by sequencing.
Electrophysiology of oocytes: Whole-oocyte currents were measured by conventional two-electrode voltage clamp (TEVC) with a GeneClamp 500 amplifier (Axon Instruments). Agarose cushion microelectrodes were filled with 1.5% (w/v) agarose in 3 M KCl and were used with resistances between 0.1 and 1.5 megaohms. […] Barium-sensitive basal currents from both groups, 1) Vehicle, 2) single concentration at 10 μM and 3) multiple concentrations of ML297 or GAT compounds in the presence of HK solution, were assessed at −80 mV using TEVC. Barium-sensitive currents were normalized to average basal current in the vehicle solutions. The HK solution contained the following: 96 mM KCl, 1 mM NaCl, 1 mM MgCl2, 5 mM KOH/HEPES, pH 7.4. The barium solution consisted of HK+10 mM BaCl2. Five to ten oocytes from the same batch (same frog) were recorded for each group, and the experiments were repeated in at least four batches. Data acquisition and analysis were carried out using pClamp9 (Molecular Devices) and OriginPro (Microcal) software.
To test these computational predictions, the inventors mutated each or both of the two M1 key wild-type GIRK4 subunit residues to the corresponding GIRK2 residues (GIRK4-V92I, GIRK4-T94V, GIRK4-V92I/T94V or GIRK4-dm) and vice-versa the GIRK2 residues to the corresponding GIRK4 ones (GIRK2-I97V, GIRK2-V99T, GIRK2-I97V/V99T or GIRK2-dm) (FIG. 35). […]

light-dark box (LD) test = format: in vivo, rat; conditions: 10 and 30 mg/kg
Protocol: Light-dark box: Light-Dark Box test was preformed using a cage 52×100×39 cm divided into two equal sections by an opening. One section is brightly illuminated whereas the other section is dark. Animals were injected 30 min prior to testing with vehicle or ligand and then placed into the light side with immediate access to explore the entire cage. Time spent in the illuminated section was analyzed. The chamber was cleaned between each experiment.

EC50 (GIRK1/4(T-V)): 500 ± 470 nM
EMAX (GIRK1/4(T-V)): 1.12±0.03
Emax (GIRK1/4(T-V); read-out: EMAX, % of the control GIRK1/2): 7%
time spent in the light compartment versus vehicle (in words) (light-dark box (LD) test): no difference
Structure (SMILES): Cc1cc(NC(=O)Nc2ccc(Br)s2)n(-c2ccccc2)n1 [GAT1508, 1-(5-bromothiophen-2-yl)-3-(3-methyl-1-phenyl-1H-pyrazol-5-yl)urea]

— patent US12351574B2, “Selective ligands for modulation of GIRK channels” (Northeastern University, priority 2018, dated 2025)
